Measurements from patent US7238469B2, “Carbon monoxide improves outcomes in tissue and organ transplants and suppresses apoptosis” (priority 2001, dated 2007).

Legend:
[1] = tested on: murine islets of Langerhans; assay: DNA fragmentation analysis (FACScan) of murine islets stimulated with TNF-α and cycloheximide; type: cell-based, C57BL/6 mice; details: isolated murine islets; TNF-α plus cycloheximide; CO 1% for 24 hours; analysed after 48 hours
Experimental: (§1) βTC3 cultures were incubated with recombinant TNF-α (500 or 1000 U/ml) (R&D Systems) for 24 hours and islet cultures were stimulated with TNF-É (5000 U/ml) (R&D Systems) and cyclohexamide (CHX) (50 μg/ml) for 48 hours. βTC3 or islets were harvested, dispersed, fixed in 70% ethanol, and suspended in DNA staining buffer (PBS, pH 7.4, containing 0.1% Triton X-100, 0.1 mM EDTA, 50 μg/ml propidium iodide, […] Rnase A). DNA content was analyzed on a FACScan™ analyzer equipped with Cell QuestO Software (Becton Dickinson, Palo Alto, Calif.). Cells with a normal DNA content (2N) were scored as viable, whereas cells with a hypoploid DNA content (<2N, termed A^0) were scored as apoptotic. To exclude debris and apoptotic cell-free fragments, all events with an FL-2 area profile below that of chicken erythrocyte nuclei were excluded from analysis.
(§2) Cells and islets were exposed to 1% carbon monoxide in compressed air balanced with 5% CO2, as described elsewhere (see, e.g., Otterbein et al., Nature Med. 6:422–428, 2000). Islets were incubated in RPMI medium pre-saturated with carbon monoxide (4° C. overnight, 1% CO, 5% CO2) for two hours at 37° C. while treatment with 1% CO, 5% CO2 was continued.
Whether exogenous carbon monoxide protects murine islet cells from apoptosis was also investigated (FIG. 3). […] After 48 hours cells were analyzed on a FACScan™ for DNA fragmentation. […]

[2] = tested on: islets transplanted under the kidney capsule of diabetic syngeneic recipients; assay: Syngeneic marginal mass islet transplantation, time to normoglycemia; type: in vivo, C57BL/6 mice; details: 250 islets pre-incubated two hours in medium pre-saturated with 1% CO
Experimental: as §2
Male C57BL/6 were purchased from Charles River Laboratories (Wilmington, Mass.) and housed in accordance with guidelines from the NIH. The experiments were approved by the Institutional Animal Care and Use Committee (IACUC). Recipient mice (8 weeks old) were rendered diabetic by a single intraperitoneal injection (220 mg/kg) of StreptozotocinO (Sigma) dissolved in citrate buffer. Mice received transplants if 2 consecutive non-fasting blood glucose levels of greater than 350 mg/dl were obtained from a whole blood sample.
250 islets 150–250 îm in diameter were hand-picked using a dissecting microscope. Islets were transplanted under the kidney capsule as described previously (Kaufman et al., J. Exp. Med. 172:291–302, 1990). […]
Whether carbon monoxide pre-incubation of islet grafts prior to transplantation results in better functional performance in vivo was investigated (FIGS. 6A–B). […] After transplantation, blood glucose levels were determined on a daily basis. […]

βTC3 cells = assay: DNA fragmentation analysis (FACScan) of βTC3 treated with TNF-α; type: cell-based, murine; details: exogenous CO 1% for 24 hours
Experimental: as §1
Cells and islets were exposed to 1% carbon monoxide in compressed air balanced with 5% CO2, as described elsewhere (see, e.g., Otterbein et al., Nature Med. 6:422–428, 2000). […]
Whether exogenous carbon monoxide could protect β-cells from apoptosis was investigated (FIGS. 2A–C). […] After 24 hours cells were stained by propidium iodide and analyzed for DNA fragmentation on a FACScan™. […]

In the case of `[C-]#[O+]` [CO, carbon monoxide], the “apoptotic cells (DNA fragmentation analysis)” value [1] is reported as 11.7%, the “time needed to reach normoglycemia (median)” value [2] is reported as 7 days and the “apoptotic cells (DNA fragmentation analysis)” value (βTC3 cells) is reported as 11.7%.
